Bounds are passed on as bounds.

The assay addresses T1, N-terminally GST-tagged human full length recombinant Mps-1 kinase (Homo sapiens, UniProt P33981).
T1 construct: N-terminally GST-tagged human full length recombinant Mps-1 kinase; purchased Invitrogen, Karslruhe, Germany PV4071
T1 sequence (P33981 1-857): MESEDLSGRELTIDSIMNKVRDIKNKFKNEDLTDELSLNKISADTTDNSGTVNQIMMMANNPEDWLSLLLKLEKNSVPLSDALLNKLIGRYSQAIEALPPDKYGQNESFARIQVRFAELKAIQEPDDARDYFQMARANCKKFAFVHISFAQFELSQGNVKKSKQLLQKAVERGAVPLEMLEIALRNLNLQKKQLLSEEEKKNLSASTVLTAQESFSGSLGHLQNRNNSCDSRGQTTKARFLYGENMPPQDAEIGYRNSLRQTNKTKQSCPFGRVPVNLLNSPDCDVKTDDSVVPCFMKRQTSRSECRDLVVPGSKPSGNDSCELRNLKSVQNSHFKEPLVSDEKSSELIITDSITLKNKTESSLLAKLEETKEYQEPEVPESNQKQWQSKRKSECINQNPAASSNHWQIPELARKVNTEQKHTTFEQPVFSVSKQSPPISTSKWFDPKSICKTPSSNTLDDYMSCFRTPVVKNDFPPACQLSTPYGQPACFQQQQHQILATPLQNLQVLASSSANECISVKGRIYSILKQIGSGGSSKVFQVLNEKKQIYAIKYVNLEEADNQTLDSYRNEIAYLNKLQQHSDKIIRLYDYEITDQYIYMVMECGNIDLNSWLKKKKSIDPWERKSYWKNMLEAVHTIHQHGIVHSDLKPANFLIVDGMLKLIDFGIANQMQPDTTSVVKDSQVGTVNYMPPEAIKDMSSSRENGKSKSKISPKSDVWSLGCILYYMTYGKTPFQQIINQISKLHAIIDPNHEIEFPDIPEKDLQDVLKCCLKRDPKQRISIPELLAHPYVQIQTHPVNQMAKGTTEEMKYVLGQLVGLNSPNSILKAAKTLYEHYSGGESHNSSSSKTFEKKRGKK
Description: Mps-1 kinase assay (TR-FRET). The format is biochemical. Conditions: Mps1 IC50 [nM], 10 μM ATP, 1 μM peptide substrate, 60 min at 22° C. The procedure, abridged: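 GST-tagged full-length recombinant Mps-1 at about 1 nM final, adjusted per lot for linear range, phosphorylated a biotinylated peptide. Product bound Eu-anti-phospho(Ser/Thr) antibody over 1 h at 22° C and was read by TR-FRET to streptavidin-XLent. Compounds scored for kinase inhibition.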
The IC50 is the concentration that gives 50% inhibition. As for `Cc1cc(-c2cnc3c(NCC(C)(C)O)cc(Sc4cccs4)nn23)ccc1C(=O)NC1CC1` [Example 261, N-cyclopropyl-4-{8-[(2-hydroxy-2-methylpropyl)amino]-6-(2-thienylsulfanyl)imidazo[1,2-b]pyridazin-3-yl}-2-methylbenzamide], the IC50 turned out to be 0.5 nM.
The figure for `Cc1cc(-c2cnc3c(NCC(C)(C)O)cc(-c4cn[nH]c4)nn23)ccc1C(=O)NC1CC1` [Example 162, N-cyclopropyl-4-{8-[(2-hydroxy-2-methylpropyl)amino]-6-(1H-pyrazol-4-yl)imidazo[1,2-b]pyridazin-3-yl}-2-methylbenzamide] is 64.9 nM.
`Cc1cc(-c2cnc3c(NCC(C)(C)O)cc(Nc4cc(F)cc(F)c4)nn23)ccc1C(=O)NC1CC1` [Example 351, N-cyclopropyl-4-{6-[(3,5-difluorophenyl)amino]-8-[(2-hydroxy-2-methylpropyl)amino]imidazo[1,2-b]pyridazin-3-yl}-2-methylbenzamide]: the 50% inhibitory concentration (IC50) turned out to be 1 nM.
For `COC1(NC(=O)c2ccc(-c3cnc4c(NCCC(F)(F)F)cc(Oc5cccc(F)c5)nn34)cc2C)CC1` [Example 460, 4-{6-(3-fluorophenoxy)-8-[(3,3,3-trifluoropropyl)amino]imidazo[1,2-b]pyridazin-3-yl}-N-(1-methoxycyclopropyl)-2-methylbenzamide], the IC50 turned out to be 0.3 nM.
Regarding `Cc1cc(-c2cnc3c(NCC(C)(C)O)cc(Sc4ccc(F)c(F)c4)nn23)ccc1C(=O)NC1CC1` [Example 300, N-cyclopropyl-4-{6-[(3,4-difluorophenyl)sulfanyl]-8-[(2-hydroxy-2-methylpropyl)amino]imidazo[1,2-b]pyridazin-3-yl}-2-methylbenzamide], the IC50 came out at 0.8 nM.
Consider `COc1ccc(Oc2cc(NCC(C)(C)O)c3ncc(-c4ccc(C(=O)NC5CC5)c(C)c4)n3n2)cc1` [Example 86, N-cyclopropyl-4-{8-[(2-hydroxy-2-methylpropyl)amino]-6-(4-methoxyphenoxy)imidazo[1,2-b]pyridazin-3-yl}-2-methylbenzamide], for which the IC50 amounted to 0.1 nM.
To `Cc1cc(-c2cnc3c(NCCC(F)(F)F)cc(Sc4ccc(F)cc4N)nn23)ccc1C(=O)NC1CC1` [Example 417, 4-{6-[(2-amino-4-fluorophenyl)sulfanyl]-8-[(3,3,3-trifluoropropyl)amino]imidazo[1,2-b]pyridazin-3-yl}-N-cyclopropyl-2-methylbenzamide] belongs 0.2 nM; to `Cc1cc(F)cc(Sc2cc(NCCCC(F)(F)F)c3ncc(-c4ccc(C(=O)NC5CC5)c(C)c4)n3n2)c1` [Example 449, N-cyclopropyl-4-{6-[(3-fluoro-5-methylphenyl)sulfanyl]-8-[(4,4,4-trifluorobutyl)amino]imidazo[1,2-b]pyridazin-3-yl}-2-methylbenzamide], 0.6 nM.
In the case of `CCNC(=O)c1ccc(-c2cnc3c(NCCN4CCOCC4)cc(Oc4cc(F)ccc4C)nn23)cc1C` [Example 592, N-ethyl-4-[6-(5-fluoro-2-methylphenoxy)-8-{[2-(morpholin-4-yl)ethyl]amino}imidazo[1,2-b]pyridazin-3-yl]-2-methylbenzamide], the IC50 is 1.5 nM.
In the case of `Cc1cc(-c2cnc3c(NCC(O)C(F)(F)F)cc(Sc4cccc(F)c4)nn23)ccc1C(=O)NC1CC1` (racemic) [Example 216, (RS)—N-cyclopropyl-4-{6-[(3-fluorophenyl)sulfanyl]-8-[(3,3,3-trifluoro-2-hydroxypropyl)amino]imidazo[1,2-b]pyridazin-3-yl}-2-methylbenzamide], the half-inhibitory concentration (IC50) is less than 1 nM.
Regarding `Cc1cc(-c2cnc3c(NCCC(F)(F)F)cc(Nc4ccc(F)c(O)c4)nn23)ccc1C(=O)NC1CC1` [Example 442, N-cyclopropyl-4-{6-[(4-fluoro-3-hydroxyphenyl)amino]-8-[(3,3,3-trifluoropropyl)amino]imidazo[1,2-b]pyridazin-3-yl}-2-methylbenzamide], the IC50 came to 0.1 nM.

Source of the values: patent US9255100B2 (BAYER INTELLECTUAL PROPERTY GMBH, priority 2010, dated 2016).
